Reference: US8629132B2, “Kinase inhibitors” (Genosco, priority 2009, dated 2014)

Columns and labels:
[1] = target: JAK2 (Homo sapiens, UniProt O60674); experiment: In vitro kinase inhibition profile (Ambit Biosciences); type: binding; parameters: JAK2(JH1domain-catalytic); purchased Ambit Biosciences; conditions: reported as percent control, lower numbers indicate stronger activities
Protocol: (§1) Up to 518 different kinases have been identified in humans. To determine the scope of inhibitory effects of a representative compound of Formula (I) on known kinases, Compound 82 was tested against 104 commercially available kinases (Ambit Biosciences™). 104 kinases included ABL1(E255K)-phosphorylated, ABL1(T315I)-phosphorylated, ABL1-phosphorylated, ACVR1B, ADCK3, AKT1, AKT2, ALK, AURKA, AURKB, AXL, BMPR2, BRAF, BRAF(V600E), BTK, CDK11, CDK2, CDK3, CDK7, CDK9, CHEK1, CSF1R, CSNK1D, CSNK1G2, DCAMKL1, DYRK1B, EGFR, EGFR(L858R), EPHA2, ERBB2, ERBB4, ERK1, FAK, FGFR2, FGFR3, FLT1, FLT3, FLT4, GSK3B, IGF1R, IKK-α, IKK-β, INSR, JAK2(JH1domain-catalytic), JAK3 (JH1 domain-catalytic), JNK 1, JNK2, JNK3, KIT, KIT(D816V), KIT(V559D,T6701), LKB1, LRRK2, LRRK2(G2019S), MAP3K4, MAPKAPK2, MARKS, MEK1, MEK2, MET, MKNK1, MKNK2, MLK1, MTOR, p38-alpha, p38-beta, PAK1, PAK2, PAK-4, PCTK1, PDGFRA, PDGFRB, PDPK1, PIK3C2B, PIK3CA, PIK3CG, PIM1, PIM2, PIM3, PKAC-alpha, PLK1, PLK3, PLK4, PRKCE, PYK2, RAF1, RET, R10K2, ROCK2, RSK2, SNARK, SRC, SRPK3, SYK, TAK1, TGFBR1, TIE2, TRKA, TSSK1B, TYK2(JH1domain-catalytic), ULK2, VEGFR2, YANK3 and ZAP70.
(§2) Inhibition activity of Compound 82 was reported as percent control where lower numbers indicate stronger activities.

[2] = target: T1, KIT (Homo sapiens, UniProt P10721); experiment: as above; type: binding; conditions: reported as percent control, lower numbers indicate stronger activities
T1 construct: purchased Ambit Biosciences
Protocol: as §1, §2

[3] = target: T2, JAK3 (Homo sapiens, UniProt P52333); experiment: as above; type: binding; conditions: reported as percent control, lower numbers indicate stronger activities
T2 construct: JAK3 (JH1 domain-catalytic); purchased Ambit Biosciences
Protocol: as §1, §2

[4] = target: T3, ABL1(T315I) (Homo sapiens, UniProt P00519, T315I); experiment: as above; type: binding; conditions: reported as percent control, lower numbers indicate stronger activities
T3 construct: purchased Ambit Biosciences
Protocol: as §1, §2

[5] = target: T4, MLK1 (Homo sapiens, UniProt P80192); experiment: as above; type: binding; conditions: reported as percent control, lower numbers indicate stronger activities
T4 construct: purchased Ambit Biosciences
T4 sequence (P80192 whole entry): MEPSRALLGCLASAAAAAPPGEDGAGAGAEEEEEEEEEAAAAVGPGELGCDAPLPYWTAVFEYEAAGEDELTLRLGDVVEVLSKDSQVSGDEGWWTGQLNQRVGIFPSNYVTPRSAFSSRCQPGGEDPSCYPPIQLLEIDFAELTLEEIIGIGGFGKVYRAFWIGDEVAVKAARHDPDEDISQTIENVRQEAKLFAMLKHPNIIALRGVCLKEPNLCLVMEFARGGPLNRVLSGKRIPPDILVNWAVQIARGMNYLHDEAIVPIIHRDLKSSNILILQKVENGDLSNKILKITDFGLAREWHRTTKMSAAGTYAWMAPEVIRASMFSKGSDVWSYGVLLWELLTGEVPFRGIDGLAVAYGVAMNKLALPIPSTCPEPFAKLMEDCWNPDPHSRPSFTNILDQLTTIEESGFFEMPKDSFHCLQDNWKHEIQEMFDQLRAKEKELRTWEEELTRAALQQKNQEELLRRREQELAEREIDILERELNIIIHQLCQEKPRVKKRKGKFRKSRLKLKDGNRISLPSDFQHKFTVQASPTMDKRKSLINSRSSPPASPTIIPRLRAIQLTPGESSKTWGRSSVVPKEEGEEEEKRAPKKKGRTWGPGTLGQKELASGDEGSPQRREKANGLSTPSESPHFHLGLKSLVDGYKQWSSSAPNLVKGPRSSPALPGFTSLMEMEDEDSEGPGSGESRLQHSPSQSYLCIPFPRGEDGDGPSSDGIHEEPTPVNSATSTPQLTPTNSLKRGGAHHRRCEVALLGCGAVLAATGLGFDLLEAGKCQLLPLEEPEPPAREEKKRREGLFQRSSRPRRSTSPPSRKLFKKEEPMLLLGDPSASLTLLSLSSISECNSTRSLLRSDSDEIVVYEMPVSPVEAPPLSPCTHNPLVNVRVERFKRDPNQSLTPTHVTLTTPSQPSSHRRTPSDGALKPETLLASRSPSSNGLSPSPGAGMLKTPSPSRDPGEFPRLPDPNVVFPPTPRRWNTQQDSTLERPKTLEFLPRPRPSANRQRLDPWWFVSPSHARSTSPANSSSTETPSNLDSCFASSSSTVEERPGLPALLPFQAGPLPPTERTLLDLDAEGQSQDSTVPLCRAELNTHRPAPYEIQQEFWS
Protocol: as §1, §2

[6] = target: T5, ZAP70 (Homo sapiens, UniProt P43403); experiment: as above; type: binding; conditions: reported as percent control, lower numbers indicate stronger activities
T5 construct: Purified full-length human SYK, ZAP70, PIM1, PYK2; purchased Carna Biosciences
T5 sequence (P43403 1-619): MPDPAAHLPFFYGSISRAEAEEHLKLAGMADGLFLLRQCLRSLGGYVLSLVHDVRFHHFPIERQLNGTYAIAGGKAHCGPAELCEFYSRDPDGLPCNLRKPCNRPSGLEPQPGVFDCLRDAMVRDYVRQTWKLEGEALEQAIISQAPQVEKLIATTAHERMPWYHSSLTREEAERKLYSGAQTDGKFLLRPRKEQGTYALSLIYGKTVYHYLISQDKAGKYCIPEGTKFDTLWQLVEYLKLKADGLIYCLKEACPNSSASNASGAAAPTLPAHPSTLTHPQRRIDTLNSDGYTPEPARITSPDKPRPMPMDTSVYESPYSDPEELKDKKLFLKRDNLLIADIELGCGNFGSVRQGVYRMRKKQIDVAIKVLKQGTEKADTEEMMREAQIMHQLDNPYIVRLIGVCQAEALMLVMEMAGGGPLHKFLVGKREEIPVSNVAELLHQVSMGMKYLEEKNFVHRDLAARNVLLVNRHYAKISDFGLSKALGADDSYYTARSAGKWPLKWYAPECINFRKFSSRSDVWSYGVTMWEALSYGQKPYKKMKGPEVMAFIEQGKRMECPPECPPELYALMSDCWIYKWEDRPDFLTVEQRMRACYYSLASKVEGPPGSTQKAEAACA
Protocol: as §1, §2

[7] = target: T6, PLK3 (Homo sapiens, UniProt Q9H4B4); experiment: as above; type: binding; conditions: reported as percent control, lower numbers indicate stronger activities
T6 construct: purchased Ambit Biosciences
T6 sequence (Q9H4B4 whole entry): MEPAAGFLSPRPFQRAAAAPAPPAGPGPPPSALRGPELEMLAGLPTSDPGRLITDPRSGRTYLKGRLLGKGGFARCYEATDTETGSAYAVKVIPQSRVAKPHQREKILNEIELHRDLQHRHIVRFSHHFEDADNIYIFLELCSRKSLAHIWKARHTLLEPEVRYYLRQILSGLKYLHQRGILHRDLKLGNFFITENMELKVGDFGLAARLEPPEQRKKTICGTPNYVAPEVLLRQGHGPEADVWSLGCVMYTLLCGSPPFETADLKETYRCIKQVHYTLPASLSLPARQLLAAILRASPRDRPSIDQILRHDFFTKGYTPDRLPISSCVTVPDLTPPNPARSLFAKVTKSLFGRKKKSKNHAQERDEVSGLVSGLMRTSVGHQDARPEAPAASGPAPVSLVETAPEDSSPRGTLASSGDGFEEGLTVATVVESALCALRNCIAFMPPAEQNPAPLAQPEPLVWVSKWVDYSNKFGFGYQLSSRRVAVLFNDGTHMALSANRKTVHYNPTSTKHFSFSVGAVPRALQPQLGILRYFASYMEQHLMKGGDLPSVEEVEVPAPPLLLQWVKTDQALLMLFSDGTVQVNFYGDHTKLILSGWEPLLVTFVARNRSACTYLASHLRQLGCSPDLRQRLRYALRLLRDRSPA
Protocol: as §1, §2

[8] = target: T7, AURKB (Homo sapiens, UniProt Q96GD4); experiment: as above; type: binding; conditions: reported as percent control, lower numbers indicate stronger activities
T7 construct: purchased Ambit Biosciences
Protocol: as §1, §2

[9] = target: T8, SNARK (Homo sapiens, UniProt Q9H093); experiment: as above; type: binding; conditions: reported as percent control, lower numbers indicate stronger activities
T8 construct: purchased Ambit Biosciences
T8 sequence (Q9H093 whole entry): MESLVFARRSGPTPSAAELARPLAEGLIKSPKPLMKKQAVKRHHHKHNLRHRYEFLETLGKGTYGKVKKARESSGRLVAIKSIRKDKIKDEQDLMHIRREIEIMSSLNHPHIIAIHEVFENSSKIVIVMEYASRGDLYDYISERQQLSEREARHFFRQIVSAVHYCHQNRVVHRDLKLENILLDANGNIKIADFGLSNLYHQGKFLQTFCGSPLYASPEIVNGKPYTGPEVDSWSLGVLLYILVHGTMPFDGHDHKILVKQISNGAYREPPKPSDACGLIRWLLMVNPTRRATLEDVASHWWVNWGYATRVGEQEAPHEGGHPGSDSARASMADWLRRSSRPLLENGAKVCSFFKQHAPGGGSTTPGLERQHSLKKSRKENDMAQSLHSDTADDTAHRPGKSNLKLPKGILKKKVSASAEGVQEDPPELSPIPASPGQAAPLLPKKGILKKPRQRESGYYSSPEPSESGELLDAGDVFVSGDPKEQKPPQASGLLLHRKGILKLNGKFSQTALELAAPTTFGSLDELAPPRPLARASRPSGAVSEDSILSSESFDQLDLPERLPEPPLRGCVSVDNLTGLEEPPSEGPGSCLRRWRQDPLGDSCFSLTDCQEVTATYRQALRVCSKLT
Protocol: as §1, §2

[10] = target: T9, AXL (Homo sapiens, UniProt P30530); experiment: as above; type: binding; conditions: reported as percent control, lower numbers indicate stronger activities
T9 construct: purchased Ambit Biosciences
T9 sequence (P30530 26-894): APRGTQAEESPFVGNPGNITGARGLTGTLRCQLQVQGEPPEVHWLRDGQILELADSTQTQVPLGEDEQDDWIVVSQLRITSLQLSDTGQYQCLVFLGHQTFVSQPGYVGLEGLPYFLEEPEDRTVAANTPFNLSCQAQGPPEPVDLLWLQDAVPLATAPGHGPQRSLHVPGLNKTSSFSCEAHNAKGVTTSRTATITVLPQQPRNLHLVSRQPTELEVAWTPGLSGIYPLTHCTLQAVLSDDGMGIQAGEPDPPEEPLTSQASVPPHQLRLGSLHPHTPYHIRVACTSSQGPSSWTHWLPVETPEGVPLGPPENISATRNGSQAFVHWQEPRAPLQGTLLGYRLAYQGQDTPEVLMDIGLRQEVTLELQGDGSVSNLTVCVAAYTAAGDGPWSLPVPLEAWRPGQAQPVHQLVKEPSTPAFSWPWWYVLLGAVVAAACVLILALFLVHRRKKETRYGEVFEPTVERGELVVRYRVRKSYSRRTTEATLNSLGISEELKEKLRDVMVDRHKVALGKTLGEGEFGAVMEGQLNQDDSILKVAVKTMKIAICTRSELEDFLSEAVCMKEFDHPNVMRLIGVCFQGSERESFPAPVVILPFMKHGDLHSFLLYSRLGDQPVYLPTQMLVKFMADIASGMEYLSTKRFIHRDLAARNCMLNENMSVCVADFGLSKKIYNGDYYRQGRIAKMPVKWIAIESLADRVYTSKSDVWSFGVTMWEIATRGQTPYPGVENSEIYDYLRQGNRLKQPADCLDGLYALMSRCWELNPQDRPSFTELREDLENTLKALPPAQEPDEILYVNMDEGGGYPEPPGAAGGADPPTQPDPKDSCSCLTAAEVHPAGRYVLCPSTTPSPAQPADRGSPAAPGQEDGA
Protocol: as §1, §2

[11] = target: T10, TYK2 (Homo sapiens, UniProt P29597); experiment: as above; type: binding; conditions: reported as percent control, lower numbers indicate stronger activities
T10 construct: TYK2(JH1domain-catalytic); purchased Ambit Biosciences
T10 sequence (P29597 897-1176 limits assumed): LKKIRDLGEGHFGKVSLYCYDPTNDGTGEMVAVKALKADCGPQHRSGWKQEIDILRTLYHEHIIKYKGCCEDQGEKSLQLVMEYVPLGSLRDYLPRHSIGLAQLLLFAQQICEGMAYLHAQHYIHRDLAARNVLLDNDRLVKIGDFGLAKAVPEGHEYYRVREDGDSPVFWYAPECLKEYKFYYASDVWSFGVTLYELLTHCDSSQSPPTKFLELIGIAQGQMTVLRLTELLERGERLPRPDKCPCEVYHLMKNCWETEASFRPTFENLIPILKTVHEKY
Protocol: as §1, §2

[12] = target: T11, FLT3 (Homo sapiens, UniProt P36888); experiment: as above; type: binding; conditions: reported as percent control, lower numbers indicate stronger activities
T11 construct: purchased Ambit Biosciences
T11 sequence (P36888 27-993): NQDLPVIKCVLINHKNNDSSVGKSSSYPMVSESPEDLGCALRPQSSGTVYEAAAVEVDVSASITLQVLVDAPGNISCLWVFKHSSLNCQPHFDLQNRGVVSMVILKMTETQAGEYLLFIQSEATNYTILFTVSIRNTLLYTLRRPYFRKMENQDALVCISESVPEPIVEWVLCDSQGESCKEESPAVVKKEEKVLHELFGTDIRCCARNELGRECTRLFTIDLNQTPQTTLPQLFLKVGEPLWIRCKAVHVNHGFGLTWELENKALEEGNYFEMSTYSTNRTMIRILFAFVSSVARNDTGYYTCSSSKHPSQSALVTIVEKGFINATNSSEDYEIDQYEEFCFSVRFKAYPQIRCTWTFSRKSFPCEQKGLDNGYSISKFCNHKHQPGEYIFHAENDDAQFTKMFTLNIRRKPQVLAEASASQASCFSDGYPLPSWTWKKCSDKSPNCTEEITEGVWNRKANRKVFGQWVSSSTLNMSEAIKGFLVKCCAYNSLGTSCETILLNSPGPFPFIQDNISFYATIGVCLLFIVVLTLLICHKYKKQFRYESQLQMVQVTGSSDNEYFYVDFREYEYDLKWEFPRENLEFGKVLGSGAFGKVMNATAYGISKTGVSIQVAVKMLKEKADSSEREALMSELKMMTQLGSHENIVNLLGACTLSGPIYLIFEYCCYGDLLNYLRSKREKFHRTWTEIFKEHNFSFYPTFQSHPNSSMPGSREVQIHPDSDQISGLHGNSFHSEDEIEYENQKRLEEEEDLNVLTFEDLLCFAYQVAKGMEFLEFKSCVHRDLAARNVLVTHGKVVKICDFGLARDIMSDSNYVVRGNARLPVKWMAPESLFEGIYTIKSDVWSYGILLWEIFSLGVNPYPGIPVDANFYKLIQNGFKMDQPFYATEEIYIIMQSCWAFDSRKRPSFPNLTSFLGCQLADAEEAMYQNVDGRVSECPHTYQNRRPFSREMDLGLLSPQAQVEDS
Protocol: as §1, §2

[13] = target: T5, ZAP70; experiment: Kinase inhibition assay: ZAP70; type: biochemical; conditions: at 1 μM concentration
Protocol: Compounds of the present invention were tested for their capacity to inhibit a kinase panel which includes, but are not limited to, spleen tyrosine kinase (SYK), zeta-chain-associated protein kinase 70 (ZAP70), PTK2B protein tyrosine kinase 2 (PYK2), focal adhesion kinase (FAK), provirus integration of maloney kinase 1 (PIM1), rearranged during transfection kinase (RET), Fms-like tyrosine kinase 3 (FLT3), Janus kinase 2 (JAK2), and leucine-rich repeat kinase 2 (LRRK2).
Inhibition of SYK, ZAP70, PYK2, FAK, PIM1, RET, FLT3, JAK2 and LRRK2 Kinase Activity
Compounds of the invention were initially diluted to 10 mM in 100% DMSO (CALBIOCHEM™) for storage and made into kinase buffer solution to create a compound concentration ranging from 1 uM and 10 uM. Serial dilutions of compounds of the invention were dispensed into a 96-well plate (GREINER BIOSCIENCES™) at 6 μL each. Purified full-length human SYK, ZAP70, PIM1, PYK2 and truncated human FAK, RET, FLT3, JAK2, and LRRK2 (CARNA BIOSCIENCES™) were diluted in kinase buffer and added to the compound solutions and pre-incubated for 30 minutes at room temperature (1 hour for PYK2). […] The reaction mixture was incubated for 1 hour (2 hours for PYK2). Following the incubation, the stop solution made with EDTA, water, and Lance detection buffer ([…]™) was added (12μL each) to stop phosphorylation. […] The IC50 value of test compound was calculated at Gradpad Prism 5 unless specified otherwise.

JAK2, sequence (O60674 849-1124 limits assumed): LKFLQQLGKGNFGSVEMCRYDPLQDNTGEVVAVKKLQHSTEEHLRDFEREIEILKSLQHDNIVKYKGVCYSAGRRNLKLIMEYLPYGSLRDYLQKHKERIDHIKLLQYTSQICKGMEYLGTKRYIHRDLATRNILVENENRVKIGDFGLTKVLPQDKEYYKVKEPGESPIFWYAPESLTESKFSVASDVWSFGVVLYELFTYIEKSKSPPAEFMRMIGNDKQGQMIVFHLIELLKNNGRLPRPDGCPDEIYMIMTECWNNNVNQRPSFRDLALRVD

| % of control [1] [%] | % of control (remaining binding) [2] [%] | % of control JAK3 [3] [%] | % of control ABL1(T315I) [4] [%] | % of control [5] [%] | % of control ZAP70 binding (lower = stronger) [6] [%] | percent of control (lower = stronger binding) [7] [%] | % of control binding [8] [%] | % of control SNARK [9] [%] | % of control AXL [10] [%] | % of control [11] [%] | % of control [12] [%] | inhibition at 1 µM [13] [%] | Compound |
| --- | --- | --- | --- | --- | --- | --- | --- | --- | --- | --- | --- | --- | --- |
| 3 | 26 | 5.4 | 35 | 22 | 34 | 11 | 31 | 4.2 | 31 | 21 | 1.1 | – | Cc1cc(C)cc(Nc2ncc(F)c(-n3cc(C)c(CN4CC[C@@H](O)C4)c3)n2)c1 [Compound 82, (R)-1-((1-(2-(3,5-dimethylphenyl-amino)-5-fluoropyrimidin-4-yl)-4-methyl-1H-pyrrol-3-yl)methyl) pyrrolidin-3-ol] |
| – | – | – | – | – | – | – | – | – | – | – | – | 54.6 | COc1cc(Nc2ncc(C)c(-n3cc(C)c(CO)c3)n2)cc(OC)c1OC [Compound 21, (4-methyl-1-(5-methyl-2-(3,4,5-trimethoxyphenylamino)pyrimidin-4-yl)-1H-pyrrol-3-yl)methanol] |
